# In patent publication US9273057B2 (Bristol-Myers Squibb Company, priority 2012, dated 2016):
# Target: CK2A1 (CK2α/β) (Homo sapiens, UniProt P68400)
# Assay: CK2 kinase assay, CK2A1 (CK2α/β)
# Assay type: biochemical
# Settings: Table A; read-out: CK2A1 (CK2α/β) (IC50)
# Protocol: For example, in vitro protein kinase assays may be conducted with a relevant purified protein kinase and an appropriate synthetic substrate to determine the inhibitory activity of the compounds. […] Reaction mixtures were incubated at 30° C. for 1 hour, and reaction products were captured by binding to phosphocellulose (P81) filter plates. Incorporation of radioactive phosphate into the peptide substrate was determined by liquid scintillation counting.
# The inhibitory activity of the instant compounds may also be measured by recombinant CK2 holoenzyme kinase assays. The assays were performed in U-bottom 384-well plates. […] The reaction was initiated by the combination of bacterially expressed, CK2 α/β or CK2 holoenzyme with substrates and test compounds. The reaction was incubated at room temperature for 60 minutes and terminated by adding 30 μl of 35 mM EDTA to each sample. The reaction mixture was analyzed on the Caliper LABCHIP® 3000 (Caliper, Hopkinton, Mass.) by electrophoretic separation of the fluorescent substrate and phosphorylated product. […] Compounds were dissolved at 10 mM in dimethylsulfoxide (DMSO) and evaluated at eleven concentrations. IC50 values were derived by non-linear regression analysis.
# Chain of CK2A1 (CK2α/β) (P68400 whole entry, species assumed): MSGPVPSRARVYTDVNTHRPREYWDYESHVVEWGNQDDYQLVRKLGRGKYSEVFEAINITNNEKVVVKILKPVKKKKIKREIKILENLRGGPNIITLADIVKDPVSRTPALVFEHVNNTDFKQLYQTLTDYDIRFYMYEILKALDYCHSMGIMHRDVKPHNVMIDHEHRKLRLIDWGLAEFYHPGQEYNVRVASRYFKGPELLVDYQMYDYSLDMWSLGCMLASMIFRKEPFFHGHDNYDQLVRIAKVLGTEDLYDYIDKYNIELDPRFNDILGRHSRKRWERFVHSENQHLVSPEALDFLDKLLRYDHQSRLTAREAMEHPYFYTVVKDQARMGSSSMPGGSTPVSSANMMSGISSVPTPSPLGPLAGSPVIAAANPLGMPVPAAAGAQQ
# Chain of CK2A1 (CK2α/β) (P67870 whole entry partner, species assumed): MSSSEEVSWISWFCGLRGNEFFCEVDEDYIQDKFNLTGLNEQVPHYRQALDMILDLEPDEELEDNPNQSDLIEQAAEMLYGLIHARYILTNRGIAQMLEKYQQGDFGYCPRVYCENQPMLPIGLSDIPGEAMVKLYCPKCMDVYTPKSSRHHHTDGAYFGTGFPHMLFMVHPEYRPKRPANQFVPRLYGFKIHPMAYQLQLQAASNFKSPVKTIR
row,Structure (SMILES),IC50 [nM]
1,"CC(=O)N[C@@H]1CN(c2cc(C#N)cc(Nc3nc(NC4CC4)c4ncc(C#N)n4n3)c2Cl)CC[C@H]1O (racemic) [Example 190, (+/−)-N-((3R,4R)-1-(2-chloro-5-cyano-3-((7-cyano-4-(cyclopropylamino)imidazo[2,1-f][1,2,4]triazin-2-yl)amino)phenyl)-4-hydroxypiperidin-3-yl)acetamide]",0.48
2,"CS(=O)(=O)CC(=O)N1CC(N2CCN(c3cc(C#N)cc(Nc4nc(NC5CC5)c5ncc(C#N)n5n4)c3Cl)CC2)C1 [Example 486, 2-[(2-chloro-5-cyano-3-{4-[1-(2-methanesulfonylacetyl)azetidin-3-yl]piperazin-1-yl}phenyl)amino]-4-(cyclopropylamino)imidazo[2,1-f][1,2,4]triazine-7-carbonitrile]",1.61
3,"COC1CN(CCCc2cc(Cl)c(Nc3nc(NC4CC4)c4ncc(C#N)n4n3)cc2C#N)C1 [Example 570, 2-((2-chloro-5-cyano-4-(3-(3-methoxyazetidin-1-yl)propyl)phenyl)amino)-4-(cyclopropylamino)imidazo[2,1-f][1,2,4]triazine-7-carbonitrile]",1.91
4,"CN(C)C(=O)C1CN(c2cc(C#N)cc(Nc3nc(NC4CC4)c4ncc(C#N)n4n3)c2Cl)CCN1CC(C)(C)O (stereo not drawn) [Example 317, 4-(2-chloro-5-cyano-3-((7-cyano-4-(cyclopropylamino)imidazo [2,1-f][1,2,4]triazin-2-yl)amino)phenyl)-1-(2-hydroxy-2-methylpropyl)-N,N-dimethylpiperazine-2-carboxamide]",0.99
5,"N#Cc1cc(CN2CCC(O)CC2)c(Cl)c(Nc2nc(NC3CC3)c3ncc(C#N)n3n2)c1 [Example 672, 2-((2-chloro-5-cyano-3-((4-hydroxypiperidin-1-yl)methyl)phenyl)amino)-4-(cyclopropylamino)imidazo[2,1-f][1,2,4]triazine-7-carbonitrile]",0.62
6,"CCNc1nc(Nc2cc(C#N)cc(N3CCN4C[C@H](O)C[C@H]4C3)c2Cl)nn2c(C#N)cnc12 (racemic) [Example 436, (+/−)-2-((2-chloro-5-cyano-3-((7R,8aS)-7-hydroxyhexahydropyrrolo[1,2-a]pyrazin-2(1H)-yl)phenyl)amino)-4-(ethylamino)imidazo[2,1-f][1,2,4]triazine-7-carbonitrile]",2.51
7,"COC(=O)N(C)[C@@H]1CCN(c2cc(C#N)cc(Nc3nc(NC4CC4)c4ncc(C#N)n4n3)c2Cl)C[C@H]1O (racemic) [Example 187, (+/−)-methyl ((3R,4R)-1-(2-chloro-5-cyano-3-((7-cyano-4-(cyclopropylamino)imidazo[2,1-f][1,2,4]triazin-2-yl)amino)phenyl)-3-hydroxypiperidin-4-yl)(methyl)carbamate]",0.94
8,"CC(C)(F)C(=O)N1CC(N2CCN(c3cc(C#N)cc(Nc4nc(NC5CC5)c5ncc(C#N)n5n4)c3Cl)CC2)C1 [Example 499, 2-[(2-chloro-5-cyano-3-{4-[1-(2-fluoro-2-methylpropanoyl)azetidin-3-yl]piperazin-1-yl}phenyl)amino]-4-(cyclopropylamino)imidazo[2,1-f][1,2,4]triazine-7-carbonitrile]",3.93
9,"N#Cc1cc(Nc2nc(NC3CC3)c3ncc(C#N)n3n2)c(Cl)c(N2CCN(C(=O)CCN3CCCCC3)CC2)c1 [Example 82, 2-((2-chloro-5-cyano-3-(4-(3-(1-piperidinyl)propanoyl)-1-piperazinyl)phenyl)amino)-4-(cyclopropylamino) imidazo[2,1-f][1,2,4] triazine-7-carbonitrile]",0.79
10,"COCCN(C)CC1CN(c2cc(C#N)cc(Nc3nc(NC4CC4)c4ncc(C#N)n4n3)c2Cl)CCO1 (stereo not drawn) [Example 702, 2-{[2-chloro-5-cyano-3-(2-{[(2-methoxyethyl)(methyl)amino]methyl}morpholin-4-yl)phenyl]amino}-4-(cyclopropylamino)imidazo[2,1-f][1,2,4]triazine-7-carbonitrile]",2.48
11,"N#Cc1cc(Nc2nc(NC3CC3)c3ncc(C#N)n3n2)c(Cl)c(N2CC(N3CCOCC3)C2)c1 [Example 152, 2-((2-chloro-5-cyano-3-(3-(4-morpholinyl)-1-azetidinyl)phenyl)amino)-4-(cycloproplamino)imidazo [2,1-f][1,2,4]triazine-7-carbonitrile]",0.53
12,"N#Cc1cc(Nc2nc(NC3CC3)c3ncc(C#N)n3n2)c(Cl)c(N2CC[C@@H](NC(=O)CN3CCOCC3)[C@H](O)C2)c1 (racemic) [Example 183, (+/−)-N-((3R,4R)-1-(2-chloro-5-cyano-3-((7-cyano-4-(cyclopropylamino)imidazo[2,1-f][1,2,4]triazin-2-yl)amino)phenyl)-3-hydroxypiperidin-4-yl)-2-morpholinoacetamide]",0.64
13,"C[C@H](O)CN1CCC(c2cc(C#N)cc(Nc3nc(NC4CC4)c4ncc(C#N)n4n3)c2Cl)CC1 [Example 216, (S)-2-(2-chloro-5-cyano-3-(1-(2-hydroxypropyl)piperidin-4-yl)phenylamino)-4-(cyclopropylamino)imidazo[1,2-f][1,2,4]triazine-7-carbonitrile]",1.02
14,"COC(=O)NC1CCN(c2cc(C#N)cc(Nc3nc(NC4CC4)c4ncc(C#N)n4n3)c2Cl)CC1(C)C (stereo not drawn) [Example 286, methyl (1-(2-chloro-5-cyano-3-((7-cyano-4-(cyclopropylamino)imidazo[2,1-f][1,2,4]triazin-2-yl)amino)phenyl)-3,3-dimethyl-4-piperidinyl)carbamate]",4.4
15,"N#Cc1cc(Nc2nc(NC3CC3)c3ncc(C#N)n3n2)c(Cl)c(N2CCN(C3CN(C(=O)C4CCC(=O)N4)C3)CC2)c1 (stereo not drawn) [Example 506, 2-[(2-chloro-5-cyano-3-{4-[1-(5-oxopyrrolidine-2-carbonyl)azetidin-3-yl]piperazin-1-yl}phenyl)amino]-4-(cyclopropylamino)imidazo[2,1-f][1,2,4]triazine-7-carbonitrile]",4.33
16,"N#Cc1cc(Nc2nc(NC3CC3)c3ncc(C#N)n3n2)c(Cl)c(C2CCN(C3COC3)CC2)c1 [Example 210, 2-((2-chloro-5-cyano-3-(1-(3-oxetanyl)-4-piperidinyl)phenyl)amino)-4-(cyclopropylamino)imidazo[2,1-f][1,2,4]triazine-7-carbonitrile]",0.71
17,"CC(=O)NCC(=O)N1CCN(c2cc(C#N)cc(Nc3nc(NC4CC4)c4ncc(C#N)n4n3)c2Cl)CC1 [Example 76, N-(2-(4-(2-chloro-5-cyano-3-((7-cyano-4-(cyclopropylamino)imidazo[2,1-f][1,2,4]triazin-2-yl)amino)phenyl)-1-piperazinyl)-2-oxoethyl)acetamide]",0.75
18,"N#Cc1cc(Nc2nc(NC3CC3)c3ncc(C#N)n3n2)c(Cl)c(N2CCN(C3CN(C(=O)C4CCOC4)C3)CC2)c1 (stereo not drawn) [Example 523, 2-[(2-chloro-5-cyano-3-{4-[1-(oxolane-3-carbonyl)azetidin-3-yl]piperazin-1-yl}phenyl)amino]-4-(cyclopropylamino)imidazo[2,1-f][1,2,4]triazine-7-carbonitrile]",4.77
19,"COC(=O)N1CCN(c2cc(C#N)cc(Nc3nc(NC4CC4)c4ncc(C#N)n4n3)c2Cl)CC1 [Example 67, methyl 4-(2-chloro-5-cyano-3-((7-cyano-4-(cyclopropylamino)imidazo[2,1-f] [1,2,4]triazin-2-yl)amino)phenyl)-1-piperazinecarboxylate]",0.48
20,"N#Cc1cc(Nc2nc(NC3CC3)c3ncc(C#N)n3n2)c(Cl)c(N2CCN(C3COC3)CC2)c1 [Example 105, 2-(2-chloro-5-cyano-3-(4-(oxetan-3-yl)piperazin-1-yl)phenylamino)-4-(cyclopropylamino) imidazo[1,2-f][1,2,4] triazine-7-carbonitrile]",0.42
21,"COC[C@H](O)CNC1CCN(c2cc(C#N)cc(Nc3nc(NC4CC4)c4ncc(C#N)n4n3)c2Cl)CC1 [Example 145, 2-((2-chloro-5-cyano-3-(4-(((2R)-2-hydroxy-3-methoxypropyl)amino)-1-piperidinyl)phenyl)amino)-4-(cyclopropylamino)imidazo [2,1-f][1,2,4]triazine-7-carbonitrile]",5.48
22,"CCNc1nc(Nc2cc(C#N)cc(N3CC[C@@H](NC(=O)OC)[C@H](OC(=O)C(C)OP(=O)(O)O)C3)c2Cl)nn2c(C#N)cnc12 (mixture of isomers) [Example 339, (+/−)-(3R,4R)-1-(2-chloro-5-cyano-3-((7-cyano-4-(ethylamino)imidazo[2,1-f][1,2,4]triazin-2-yl)amino)phenyl)-4-((methoxycarbonyl)amino)piperidin-3-yl 2-(phosphonooxy)propanoate]",0.47
23,"CC(O)CNC1CCN(c2cc(C#N)cc(Nc3nc(NC4CC4)c4ncc(C#N)n4n3)c2Cl)CC1 (racemic) [Example 138, (+/−).2-(2-chloro-5-cyano-3-(4-(2-hydroxypropylamino)piperidin-1-yl)phenylamino)-4-(cyclopropylamino)imidazo [1,2-f][1,2,4]triazine-7-carbonitrile]",0.64
24,"CCNc1nc(Nc2cc(C#N)cc(N3CCC4(CCN(C(C)=O)C4)CC3)c2Cl)nn2c(C#N)cnc12 [Example 787, 2-((3-(2-acetyl-2,8-diazaspiro[4.5]decan-8-yl)-2-chloro-5-cyanophenyl)amino)-4-(ethylamino)imidazo[2,1-f][1,2,4]triazine-7-carbonitrile]",1.66
25,"COCC(=O)N1CCC(c2cc(C#N)cc(Nc3nc(NC4CC4)c4ncc(C#N)n4n3)c2Cl)CC1 [Example 227, 2-((2-chloro-5-cyano-3-(1-(methoxyacetyl)-4-piperidinyl)phenyl)amino)-4-(cyclopropylamino)imidazo[2,1-f][1,2,4]triazine-7-carbonitrile]",0.59
26,"CCOC1CC1C(=O)N1CC(N2CCN(c3cc(C#N)cc(Nc4nc(NC5CC5)c5ncc(C#N)n5n4)c3Cl)CC2)C1 (stereo not drawn) [Example 520, 2-[(2-chloro-5-cyano-3-{4-[1-(2-ethoxycyclopropane-carbonyl)azetidin-3-yl]piperazin-1-yl}phenyl)amino]-4-(cyclopropylamino)imidazo[2,1-f][1,2,4]triazine-7-carbonitrile]",4.96
27,"CN(C)CC(=O)Nc1cc(C#N)cc(Nc2nc(NC3CC3)c3ncc(C#N)n3n2)c1Cl [Example 620, N-(2-chloro-5-cyano-3-((7-cyano-4-(cyclopropylamino)imidazo[2,1-f][1,2,4]triazin-2-yl)amino)phenyl)-2-(dimethylamino)acetamide]",1.77
